We go through three molecules from article PMC11277004, “Di- and Triselenoesters—Promising Drug Candidates for the Future Therapy of Triple-Negative Breast Cancer” (International Journal of Molecular Sciences, 2024).

Read-outs that look alike come from different tables or passages of the source. A value given as a limit tells only on which side of the number the result lay.

Common to all, as to format: cell-based, human
Experiment [1] relates to MCF-7 breast cancer cells. Briefly: DNA biosynthesis assay ([3H]-thymidine incorporation), MCF-7. The following applies: read-out: IC50, DNA biosynthesis. How it is done: The study of the antiproliferative properties (intensity of [^3H]-thymidine incorporation into cell DNA) of the tested derivatives against tested cell lines (MCF-7, MDA-MB-231, MCF-10A) was performed after 24 h incubation with varied concentrations of the tested compounds in the medium (0.5–5 µM) in 6-well plates (baseline seeding density: 5 × 10^5 cells/well). After 24 h the medium was removed, the cells were washed with PBS (Corning, Kennebunk, ME, USA), and a fresh medium was added. After that, the cells were treated with 0.5 µCi of tritium-labeled thymidine (specific activity 7 Ci/mmol) by incubating them with this compound for 4 h under the same conditions as the cell culture. In the first step, the medium was removed, and the cell monolayer was washed twice with 1 mL of 0.05 M Tris-HCl buffer pH 7.4 containing 0.11 M NaCl. To denature proteins, the cells were washed twice with 1 mL of 5% trichloroacetic acid (TCA) solution. Finally, cell lysis was performed by adding 1 mL of 0.1 M sodium hydroxide (NaOH) solution containing 1% sodium dodecyl sulfate (SDS) to each well. After five minutes, the obtained cell lysates were transferred to scintillation vials with 2 mL of scintillation fluid added to them beforehand. Radioactivity was measured using the Scintillation Counter 1900 TR, TRI-CARB (Packard, Perkin Elmer, Inc., San Jose, CA, USA). The intensity of DNA biosynthesis in the analyzed cells was expressed in terms of dpm/well. The result of the radioactivity measurement in the control cells (without the addition of tested compounds) was taken as 100%, while the values of cells incubated with the tested compounds were presented as a percentage of the control value.

For experiment [2], the system named is MDA-MB-231 triple-negative breast cancer cells. Put plainly: MTT cytotoxicity test, MDA-MB-231. The conditions noted are these: MDA-MB-231, 24 h incubation, read-out: IC50, cell viability (MTT). The procedure:
MCF-7 and MDA-MB-231 human breast cancer cell lines, as well as MCF-10A normal human breast epithelial cells, were acquired from the American Type Culture Collection (ATCC, Manassas, VA, USA). The characteristics of the breast cancer cell lines used in this study are compared in Table 1. MCF-7 and MDA-MB-231 cells were cultured in Dulbecco’s modified Eagle’s medium (Gibco, San Diego, CA, USA), while MCF-10A cells were cultured in the mammary epithelial cell growth medium with the following supplements: BPE, hEGF, insulin, hydrocortisone, GA-1000 (Lonza, Basel, Switzerland). All media were complemented by 10% of fetal bovine serum (FBS) and 1% of the following antibiotics: penicillin and streptomycin (both Gibco, San Diego, CA, USA). The cells were maintained in an incubator that provides the optimal growth conditions for the cell culture: 5% CO2, 37 °C, and humidity in a range of 90–95%. The cells were cultured in 100 mm plates (Sarstedt, Newton, NC, USA). Subsequently, after obtaining a subconfluent cell culture, the cells were detached with 0.05% trypsin with 0.02% EDTA (Gibco, San Diego, CA, USA). […] In this study, cells that obtained 80% confluence were used. The MTT assay was used to determine the cytotoxic effects of the compounds in the study on MCF-7 and MDA-MB-231 breast cancer cells as well as MCF-10A normal human breast epithelial cells based on Carmichael’s method. […] After this time, the medium was removed, and the cell monolayer was washed with warm phosphate-buffered saline (PBS) without calcium and magnesium. In the next step, PBS and MTT solution in PBS (5 mg/mL) were added to each well to obtain a final MTT concentration of 0.5 mg/mL, and then the cells were incubated for 4 h (37 °C temperature, 5% CO2, 90–95% humidity). After the incubation period, the contents of each well were removed, 1 mL of DMSO was added to dissolve the formazan, and then the plate with the added DMSO was mixed for 5–10 min on a microplate shaker (Boeco, Hamburg, Germany). Then, 10 µL of Sorensen’s glycine buffer (a solution of 0.1 M glycine and 0.1 M sodium chloride adjusted to pH 10.5 with 0.1 M sodium hydroxide) was added. The absorbance of the obtained solution was immediately measured at a wavelength of λ = 570 nm using a Thermo Scientific Evolution 201 UV–VIS spectrophotometer (Thermo Fisher Scientific, Waltham, MA, USA). The absorbance result obtained in the control cells (without the addition of the tested compounds) was taken as 100%, while the viability of cells incubated with the tested compounds was presented as a percentage of the control value.

A further experiment relates to Bcl-2. Briefly: Bcl-2 protein level by flow cytometry, MDA-MB-231. The following applies: 24 h. The procedure:
For this purpose, Akt (PE), Bax (FITC), Bcl-2 (Alexa Fluor® 647), LC3A/B (Alexa Fluor® 488), and p53 (Alexa Fluor® 488) antibodies conjugated to different fluorochromes (all from Cell Signaling Technology, Beverly, MA, USA) were utilized. Each assay was performed according to the manufacturer's protocol available on their website. After incubation with the tested compounds, the cells were centrifuged, resuspended in 4% formaldehyde (100 μL/1 × 10^6 cells), and fixed for 15 min at room temperature. Afterward, to remove the formaldehyde, the cells were washed by centrifugation with excess PBS and the permeabilization step was triggered. For this purpose, ice-cold 90% methanol was added to the pre-chilled cell pellet, gently vortexed, and incubated for 1 h on ice. Later, the cells were washed by centrifugation with excess PBS again, resuspended in 100 μL of 1:100 diluted primary antibody (stain buffer was used for dilution), and incubated for 1 h at room temperature in the dark. After incubation, the cells were washed, resuspended in 300 μL PBS, and immediately tested with a flow cytometer (BD FACSCanto II, BD Biosciences Systems, San Jose, CA, USA; 10,000 events measured). The obtained results were analyzed using the FACSDiva 6.0 software (BD Biosciences Systems, San Jose, CA, USA). In the case of the p53 protein, the MRF values were obtained first during the flow cytometer readout utilizing FACSDiva software and later analyzed using FCS Express 7 (De Novo Software, Pasadena, CA, USA). The equipment calibration was performed using the BD Cytometer Setup and Tracking Beads (BD Biosciences, San Diego, CA, USA).

For `N.N.[Cl][Pt][Cl]` [Cisplatin, reference compound], the IC50 is more than 5000 nM in experiment [1] (MCF-7, 24 h incubation) and more than 5000 nM in experiment [2]. The “Bcl-2 negative cells ± SD” value is given as 4.3 ± 0.3% in the experiment with Bcl-2 (MDA-MB-231, 0.5 μM) and 4.5 ± 0.6% in the experiment on Bcl-2 (MDA-MB-231, 1 μM).
As for `CC(=O)C[Se]C(=O)c1ccc(C(=O)[Se]CC(C)=O)cc1` [EDAG-1, Se,Se-bis(2-oxopropyl) benzene-1,4-bis(carboselenoate)], the IC50 in experiment [1] (Homo sapiens, MCF7, 24 h) is 790 ± 20 nM; in experiment [2] (Homo sapiens) it was 710 ± 60 nM. For the same molecule, the “Bcl-2 negative cells ± SD” value was 36.1 ± 1.6% in the experiment with Bcl-2 (MDA-MB-231, 0.5 μM) and 68.9 ± 5.7% in the experiment on Bcl-2 (MDA-MB-231, 1 μM).
For the molecule `CC(=O)C[Se]C(=O)c1cc(C(=O)[Se]CC(C)=O)cc(C(=O)[Se]CC(C)=O)c1` [EDAG-8, Se,Se,Se-tris-(2-oxopropyl) benzene-1,3,5-tris-(carboxyselenoate)], the half-maximal inhibitory concentration (IC50) came to 960 ± 70 nM in experiment [1] (Homo sapiens, MCF7, 24 h) and 530 ± 30 nM in experiment [2] (Homo sapiens). For the same molecule, the “Bcl-2 negative cells ± SD” value with Bcl-2 (MDA-MB-231, 0.5 μM) was found to be 51.7 ± 3.5%; in the experiment with Bcl-2 (MDA-MB-231, 1 μM), 74.9 ± 2.7%.
